Measurements as given in PMC12592502, “Unraveling the mechanisms behind the enhanced efficacy of β-lactam-based sideromycins” (Communications Biology, 2025).
Values after ≈ are worked out from the molar mass of the structure shown. Values joined by “and” are separate entries in the source; they are usually repeats but may differ in a detail not shown here. Equal entries are not always repeated. Where two headings read alike, the source gives them in different places.

Assays:
E. coli ATCC 25922 = test: MIC, broth microdilution (CLSI); type: cell-based, Escherichia coli; conditions: for MIC ratio 0/1 / MIC ratio 1/0 / MIC ratio unconjugated β-lactam/conjugate: ID-MHBCA; for MIC ratio 0/1: 0 and 1 µg/mL supplemental iron (Table S2); for MIC ratio 1/0: 1 versus 0 µg/mL supplemental iron (peer review file table); for MIC ratio unconjugated β-lactam/conjugate (AMP/BAMP, LOR/BLOR, CEF/MCEF): MHBCA
Description: (§1) All bacterial strains (see description and sources Table S1) were stored at −80 °C, and grown on tryptone soya agar (TSA) at 35 °C. The iron-deprived (ID)-MHBCA (cation-adjusted Muller-Hinton Broth, Becton Dickinson, Mississauga, ON, Canada) medium was prepared as reported by refs. [21],[50]. Briefly, MHBCA was treated with 10% Chelex® 50-100 mesh (Sigma) and stirred for 6 h at room temperature. The resin was removed by filtration. Divalent Ca^2+ (CaCl2), Mg^2+ (MgCl2), and Zn^2+(ZnSO4), were then added in the iron-depleted medium at 22, 12, and 1 μg/ml respectively. Finally, the pH was adjusted to 7.3, and the medium was sterilized with a 0.2-μm filter. Regular MHBCA (i.e., not treated with Chelex®) was used to compare the inhibitory activity of conjugates in iron-sufficient conditions.
(§2) Minimal inhibitory concentrations (MICs) were performed using a broth microdilution technique according to the Clinical and Laboratory Standards Institute (CLSI) guidelines. MICs were determined in MHBCA and in ID-MHBCA. To check the impact of β-lactamases, MICs in the presence of a β-lactamase inhibitor were also determined. The inhibitor was homogenized at 2X the final concentration and added to the bacterial inoculum just before distributing cells into the wells containing the drug dilutions. The final concentration of each inhibitor was 4 μg/mL for clavulanic acid (tested against K. pneumoniae) and 200 μg/mL for 3-aminophenylboronic acid (tested against P. aeruginosa and A. baumannii).

K. pneumoniae ATCC 13883 = test: MIC, broth microdilution (CLSI); type: cell-based, Klebsiella pneumoniae; conditions: for MIC ratio 0/1: 0 and 1 µg/mL supplemental iron (Table S2); for MIC ratio 1/0: 1 versus 0 µg/mL supplemental iron (peer review file table); for MIC with β-lactamase inhibitor (βI): + 4 μg/mL clavulanic acid
Description: as §1, with “conditions. The resin used for Chelex treatment was always fresh and had never been regenerated, ensuring consistent iron removal.” for “conditions.”
as §2

E. coli ΔampC = test: MIC, Keio mutant; type: cell-based, Escherichia coli
Description: as §1, with “conditions. The resin used for Chelex treatment was always fresh and had never been regenerated, ensuring consistent iron removal.” for “conditions.”
as §2

PBP2 = PBP2 (Klebsiella pneumoniae, UniProt A6T696); test: Membrane PBP binding assay, competition with Bocillin FL; design: species or system K. pneumoniae ATCC 13883
Description: Membrane extracts containing PBPs were obtained as described above. Briefly, all species were grown in 1 L of TSB until the OD600 reached 0.9. The washed pellet was incubated with lysozyme (400 μg/mL), DNase (10 μg/mL) RNase(10 μg/mL) and anti-protease cocktail (200 mg/20 mL). Lysis was done with a French press (20,000 psi) and membrane protein were pelleted by ultracentrifugation steps (100,000 × g). The pellet was suspended in a minimal volume (300–500 μL) of KP 0.05 M buffer at pH 7. The protein concentration in the membrane preparations was determined with the Micro BCA TM Protein Assay Kit (Thermo Fisher Scientific, Rockford, IL) using bovine serum albumin as a standard.
The PBP binding assay was done as described previously[36],[56],[57]. For each antibiotic concentration tested, a quantity of 25 to 40 μg of membrane preparation was used as the source of PBPs, depending on the species. For the purified PaPBP3, 150 ng was used in the assay. First, increasing concentrations of the test antibiotic was added to the membrane or purified PaPBP3 preparations and incubated for 10 min at 30 °C. The reporter molecule Bocillin FL was then added at 12.5 μM for the membrane PBPs preparations and at 500 nM for the pure PaPBP3 samples for an additional 20 min at 30 °C. All reactions were stopped with the addition of the Laemmli-loading buffer (Bio-Rad) containing fresh β-mercaptoethanol (Sigma). All reactions were then heated at 100°C for 3 min before migration on SDS-polyacrylamide discontinuous gel system (7.5% stacking and 10% separating). Control samples without Bocillin FL were also included to highlight autofluorescent proteins that are not PBPs.
To be able to visualize labeled PBPs after electrophoresis, gels were rinsed in water and fixed in a solution of 50% methanol and 7% acetic acid for 30 min. The fluorescent images of gels were obtained with the Typhoon FLA 9500 instrument (GE-Healthcare Bio-Sciences Inc., Baie-d’Urfé, QC, CA) using a 473 nm excitation wavelength. To obtain quantifiable data, the software Quantity One 1D analysis was used (version 4.6.6; Bio-Rad Laboratories, Richmond, CA). The volume (intensity × constant area) of each PBP was measured. […] All IC50 data were obtained from at least two independent PBP binding assays using two different sets of compound concentrations using a linear regression. The PBP profiles were confirmed, and the PBP numbering were determined using published data and individual molecular weights. […] For example, amdinocillin (Sigma) was used for PBP2 identification. […] The IC50 for PBP 2 of P. aeruginosa was measured by including the SDS-PAGE comigrating autofluorescent protein in the background, as done previously.

[1] = Escherichia coli, ATCC25922, ID-MHBCA + 0.1 µg/mL supplemental iron
[2] = Escherichia coli, ATCC25922, MHBCA (+)
[3] = Escherichia coli, ATCC25922, iron-deprived ID-MHBCA (−), 0 µg/mL supplemental iron
[4] = Klebsiella pneumoniae, ATCC13883, ID-MHBCA (−), 0 µg/mL supplemental iron
[5] = Klebsiella pneumoniae, ATCC13883, ID-MHBCA + 0.1 µg/mL supplemental iron
[6] = Klebsiella pneumoniae, ATCC13883, ID-MHBCA + 1 µg/mL supplemental iron
[7] = Klebsiella pneumoniae, ATCC13883, MHBCA (+)
[8] = Escherichia coli, ATCC25922, ID-MHBCA + 1 µg/mL supplemental iron
[9] = K. pneumoniae ATCC 13883 membranes, read-out: IC50 PBP2
[10] = ID-MHBCA (−), 0 µg/mL supplemental iron
[11] = iron-deprived ID-MHBCA (−), 0 µg/mL supplemental iron
[12] = ID-MHBCA + 0.1 µg/mL supplemental iron
[13] = ID-MHBCA + 1 µg/mL supplemental iron

Sequence of PBP2 (A6T696 entry or part of it): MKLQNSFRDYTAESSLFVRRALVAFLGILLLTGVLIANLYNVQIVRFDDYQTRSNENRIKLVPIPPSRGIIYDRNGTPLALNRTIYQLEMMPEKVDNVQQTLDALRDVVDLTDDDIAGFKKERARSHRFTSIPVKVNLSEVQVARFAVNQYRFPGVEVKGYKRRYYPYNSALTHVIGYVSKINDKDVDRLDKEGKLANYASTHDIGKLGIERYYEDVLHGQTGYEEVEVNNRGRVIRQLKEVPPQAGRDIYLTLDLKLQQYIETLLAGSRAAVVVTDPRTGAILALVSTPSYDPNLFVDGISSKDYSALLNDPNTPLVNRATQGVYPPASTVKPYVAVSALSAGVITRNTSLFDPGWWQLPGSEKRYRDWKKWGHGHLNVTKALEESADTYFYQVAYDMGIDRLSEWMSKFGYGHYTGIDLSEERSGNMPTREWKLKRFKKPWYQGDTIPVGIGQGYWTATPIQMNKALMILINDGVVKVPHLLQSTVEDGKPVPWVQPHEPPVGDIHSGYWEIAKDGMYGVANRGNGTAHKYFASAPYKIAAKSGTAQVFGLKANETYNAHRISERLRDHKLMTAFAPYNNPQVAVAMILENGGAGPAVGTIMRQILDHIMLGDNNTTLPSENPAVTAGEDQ

| SMILES | MIC (E. coli ATCC 25922; [1]) | MIC (E. coli ATCC 25922; [2]) | MIC (E. coli ATCC 25922; [3]) | MIC ratio 0/1 (E. coli ATCC 25922) | MIC ratio 1/0 (E. coli ATCC 25922) | MIC ratio 0/1 (K. pneumoniae ATCC 13883; ID-MHBCA) | MIC ratio 1/0 (K. pneumoniae ATCC 13883; ID-MHBCA) | MIC with β-lactamase inhibitor (βI) (K. pneumoniae ATCC 13883; ID-MHBCA) | MIC (K. pneumoniae ATCC 13883; [4]) | MIC (K. pneumoniae ATCC 13883; [6]) | MIC (K. pneumoniae ATCC 13883; [7]) | MIC with β-lactamase inhibitor (βI) (K. pneumoniae ATCC 13883; MHBCA) | MIC (E. coli ΔampC; Escherichia coli, ID-MHBCA) | MIC (E. coli ΔampC; Escherichia coli, MHBCA) | MIC (E. coli ATCC 25922; [8]) | MIC ratio unconjugated β-lactam/conjugate (E. coli ATCC 25922) | MIC ratio unconjugated β-lactam/conjugate (K. pneumoniae ATCC 13883; ID-MHBCA) | IC50 (PBP2; [9]) | MIC (K. pneumoniae ATCC 13883; [10]) | MIC (K. pneumoniae ATCC 13883; MHBCA (+)) | also measured |
| --- | --- | --- | --- | --- | --- | --- | --- | --- | --- | --- | --- | --- | --- | --- | --- | --- | --- | --- | --- | --- | --- |
| N[C@@H](C(=O)N[C@@H]1C(=O)N2C(C(=O)O)=C(Cl)CS[C@H]12)c1ccccc1 [CEF, cefaclor, reference compound] | 3.1 µM | 3.1 µM (≈ 1.14 µg/mL) | 3.1 µM (≈ 1.14 µg/mL) | 1 | 1 | 2 | 2 | 1.6 µM | 3.1 µM (≈ 1.14 µg/mL) | 6.3 µM | 3.1 µM (≈ 1.14 µg/mL) | 1.6 µM | 3.1 µM (≈ 1.14 µg/mL) | 3.1 µM (≈ 1.14 µg/mL) |  |  |  |  |  |  | MIC (K. pneumoniae ATCC 13883; [5]): 3.1 µM; IC50 (PBP2): > 50 µM |
| O=C(CN(CCCCNC(=O)c1cccc(O)c1O)C(=O)c1cccc(O)c1O)NC(C(=O)NC1C(=O)N2C(C(=O)O)=C(Cl)CCC12)c1ccccc1 (stereo not drawn) [BLOR, bis-catechol (azotochelin)-loracarbef] | 0.05 µM | 0.024 µM (≈ 0.018 µg/mL) | 0.012 µM (≈ 0.009 µg/mL) | 8 | 8 | 64 | 64 | 0.1 µM | 0.1 µM (≈ 0.075 µg/mL) | 6.3 µM | 0.2 µM (≈ 0.15 µg/mL) | 0.2 µM | 0.006 µM (≈ 0.0045 µg/mL) | 0.006 µM (≈ 0.0045 µg/mL) | 0.1 µM | 128 | 16 | 33.9 ± 5.6 µM |  |  | MIC ratio unconjugated β-lactam/conjugate (AMP/BAMP, LOR/BLOR, CEF/MCEF) (E. coli ATCC 25922): 128; MIC (K. pneumoniae ATCC 13883; [5]): 0.4 µM; MIC ratio unconjugated β-lactam/conjugate (K. pneumoniae ATCC 13883; MHBCA): 8 |
| CC1(C)S[C@@H]2[C@H](NC(=O)[C@H](N)c3ccccc3)C(=O)N2[C@H]1C(=O)O [AMP, ampicillin, reference compound] |  |  |  |  |  |  |  | 6.3 µM | > 200 µM | > 200 µM | > 200 µM | 6.3 μM and 6.3^d μM | 6.3 µM (≈ 2.2 µg/mL) | 6.3 µM (≈ 2.2 µg/mL) | 25 µM |  |  | 9.2 ± 1.9 µM | >200 µM | >200 µM |  |
| O=C(CCC(=O)N(CCCCNC(=O)c1cccc(O)c1O)CCCNC(=O)c1cccc(O)c1O)NCCCCCN(O)C(=O)CCCC(=O)NC(C(=O)NC1C(=O)N2C(C(=O)O)=C(Cl)CSC12)c1ccccc1 (stereo not drawn) [MCEF, mixed ligand bis-catechol-mono-hydroxamate-cefaclor] |  | 6.3 to 25 µM (≈ 6.81 to 27 µg/mL) | > 200 µM |  |  |  |  | 200 µM | > 200 µM | > 200 µM | > 200 µM | 13 µM | > 200 µM | 13 µM (≈ 14.1 µg/mL) | 25 µM | <0.016 | <0.016 |  | >200 µM | >200 µM | MIC (E. coli ATCC 25922; [11]): >200 µM; MIC ratio unconjugated β-lactam/conjugate (K. pneumoniae ATCC 13883; MHBCA): <0.016; IC50 (PBP2; read-out: IC50 PBP2, K. pneumoniae ATCC 13883 membranes): 16.8 ± 0.3 µM |
| N[C@@H](C(=O)N[C@@H]1C(=O)N2C(C(=O)O)=C(Cl)CC[C@H]12)c1ccccc1 [LOR, loracarbef, reference compound] |  |  |  | 2 | 2 | 2 | 2 | 1.6 µM |  |  |  | 1.6 µM |  |  |  |  |  | > 50 µM | 1.6 µM (≈ 0.56 µg/mL) | 1.6 µM (≈ 0.56 µg/mL) | MIC (E. coli ATCC 25922; [12]): 3.1 µM; MIC (E. coli ATCC 25922; [13]): 3.1 µM; MIC (E. coli ATCC 25922; MHBCA (+)): 3.1 µM (≈ 1.08 µg/mL); MIC (E. coli ATCC 25922; [11]): 1.6 µM (≈ 0.56 µg/mL); MIC (K. pneumoniae ATCC 13883; [12]): 1.6 µM; MIC (K. pneumoniae ATCC 13883; [13]): 3.1 µM; MIC (E. coli ΔampC; ID-MHBCA): 3.1 µM (≈ 1.08 µg/mL); MIC (E. coli ΔampC; MHBCA): 3.1 µM (≈ 1.08 µg/mL) |
| CC1(C)SC2C(NC(=O)C(NC(=O)CN(CCCCNC(=O)c3cccc(O)c3O)C(=O)c3cccc(O)c3O)c3ccccc3)C(=O)N2C1C(=O)O (stereo not drawn) [BAMP, bis-catechol (azotochelin)-ampicillin] | 0.1 µM | 0.1 µM (≈ 0.075 µg/mL) | 0.05 µM (≈ 0.0375 µg/mL) | 4 | 4 |  |  | 0.4 µM | > 200 µM | > 200 µM | > 200 µM | 1.6 µM | 0.012 µM (≈ 0.009 µg/mL) | 0.024 µM (≈ 0.018 µg/mL) | 0.2 µM | 256 | No activity | 5.1 ± 2.1 µM | >200 µM | >200 µM | MIC ratio unconjugated β-lactam/conjugate (AMP/BAMP, LOR/BLOR, CEF/MCEF) (E. coli ATCC 25922): 128; MIC ratio unconjugated β-lactam/conjugate (K. pneumoniae ATCC 13883; MHBCA): No activity |
